Results reported in patent US20160090571A1, “CULTURE MEDIA AND METHODS FOR CULTURING MICROORGANISMS” (Orior, LLC, priority 2014, published 2016).

Test system: microorganism associated with Morgellons disease
Test: Drug sensitivity / growth inhibition testing of the cultured microorganism
Assay type: cell-based
Settings: antibiotic added to solution
Excerpt: In other studies, Itraconazole and Posaconazole were each added to the culture medium followed by the organism.

Row | Compound | inhibitory effect on organism growth
1 | CC1(C)S[C@@H]2[C@H](NC(=O)[C@H](N)c3ccccc3)C(=O)N2[C@H]1C(=O)O [Ampicillin] | no inhibitory effect
2 | O=C(O)c1cn(C2CC2)c2cc(N3CCNCC3)c(F)cc2c1=O [Ciprofloxacin] | no inhibitory effect
3 | CC[C@H]1OC(=O)[C@H](C)[C@@H](O[C@H]2C[C@@](C)(OC)[C@@H](O)[C@H](C)O2)[C@H](C)[C@@H](O[C@@H]2O[C@H](C)C[C@H](N(C)C)[C@H]2O)[C@](C)(O)C[C@@H](C)C(=O)[C@H](C)[C@@H](O)[C@]1(C)O [Erythromycin] | no inhibitory effect
4 | CN(C)[C@@H]1C(O)=C(C(N)=O)C(=O)[C@@]2(O)C(O)=C3C(=O)c4c(O)cccc4[C@@](C)(O)[C@H]3C[C@@H]12 [Tetracycline] | no inhibitory effect
5 | Neomycin | no inhibitory effect
6 | Penicillin | no inhibitory effect

Same assay, conditions: antifungal agent added to the culture medium followed by the organism

Row | Compound | inhibition of growth
7 | CC[C@@H]([C@H](C)O)n1ncn(-c2ccc(N3CCN(c4ccc(OC[C@@H]5CO[C@@](Cn6cncn6)(c6ccc(F)cc6F)C5)cc4)CC3)cc2)c1=O [Posaconazole] | Neither antifungal agent was shown to inhibit growth
